We go through eight compounds from the supplement of paper PMC11061612.

What all share (assay): Bliss excess, mean over the matrix (fraction); higher = more synergy
Experiment [1] relates to ECC10 (Gastric Carcinoma). In a few lines:
(§1)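 After 24 hours at 37°C and 5% CO2 in 1536-well plates, cells in DMEM/F12 or RPMI plus 10% FBS received two-drug dose matrices for 72 hours. Viability came from CellTiter-Glo 2.0 luminescence and was scaled as inhibition, anchored at 0 by vehicle wells and at 1 by blank wells. Combination Emax is taken as the second-highest inhibition in the matrix, and Bliss excess as the observed combination effect less EA + EB − EA·EB, with EA and EB the single-agent effects.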

The test system of experiment [2] is COLO-824 (Breast Carcinoma). The method in brief:
as §1

Experiment [3] relates to PA-1 (Ovarian Carcinoma). The method in brief:
as §1

For experiment [4], the system named is NCI-H1650 (Lung Adenocarcinoma). The method in brief:
as §1

For experiment [5], the system named is NCI-H1666 (Lung Adenocarcinoma). In a few lines:
as §1

Experiment [6] relates to JSC-1 (B-Cell Non-Hodgkin's Lymphoma). In a few lines:
as §1

In experiment [7] the test system is A549 (Lung Adenocarcinoma). The method in brief: as §1
Experiment [8] relates to CAPAN-2 (Pancreatic Carcinoma). In a few lines:
as §1

For experiment [9], the system named is FU97 (Gastric Carcinoma). In a few lines:
as §1

Experiment [10] has as its system Hs-445 (Non-Cancerous). In a few lines: as §1
The test system of experiment [11] is NCI-H64 (Small Cell Lung Carcinoma). The method in brief: as §1
Experiment [12] deals with KARPAS-422 (B-Cell Non-Hodgkin's Lymphoma). The method in brief:
as §1

Experiment [13] deals with A498 (Kidney Carcinoma). The method in brief:
as §1

Experiment [14] deals with SK-MES-1 (Squamous Cell Lung Carcinoma). In a few lines: as §1
Experiment [15] concerns A3-KAW (B-Cell Non-Hodgkin's Lymphoma). The method in brief:
as §1

Experiment [16] relates to LN-405 (Glioblastoma). The method in brief: as §1
Experiment [17] relates to COR-L311 (Small Cell Lung Carcinoma). In a few lines:
as §1

The subject of experiment [18] is BICR22 (Oral Cavity Carcinoma). The method in brief: as §1
The test system of experiment [19] is CCK-81 (Colorectal Carcinoma). The method in brief:
as §1

Experiment [20] deals with ONS-76 (Other Solid Carcinomas). In a few lines:
as §1

Take `CCN(CCO)CCCOc1ccc2c(Nc3cc(CC(=O)Nc4cccc(F)c4)[nH]n3)ncnc2c1` [AZD2811] + C=CCn1c(=O)c2cnc(Nc3ccc(N4CCN(C)CC4)cc3)nc2n1-c1cccc(C(C)(C)O)n1 [AZD1775] (first compound max 1 µM, partner max 1 µM): the Bliss excess in experiment [1] is -0.0021; in [2], -0.0967; in experiment [3], 0.0565; in [4], -0.0277; in experiment [5] it was -0.0282; in [6] it was -0.0038. For the same compound, the Bliss excess in experiment [7] is 0.015; in experiment [8] it was -0.0462; in experiment [9], -0.0289; in [10], -0.004; in experiment [11] it was -0.0413; in experiment [12] it was -0.0349. Moreover, the Bliss excess is -0.0494 in experiment [13]; -0.0112 in experiment [14]; 0.0539 in [15]; -0.0312 in experiment [16]; -0.176 in [17]; -0.0093 in experiment [18]. The Bliss excess in experiment [19] is -0.037; in [20], 0.018.

Consider `CCN(CCO)CCCOc1ccc2c(Nc3cc(CC(=O)Nc4cccc(F)c4)[nH]n3)ncnc2c1` [AZD2811] + C[C@@H]1COCCN1C2=NC(=NC(=C2)C3(CC3)[S@](=N)(=O)C)C4=C5C=CNC5=NC=C4 [AZD6738] (first compound max 1 µM, 7x7, partner max 10 µM), for which the Bliss excess was -0.0454 in experiment [1]; -0.0843 in experiment [2]; -0.0116 in experiment [3]; -0.0801 in experiment [4]; -0.0633 in [5]; -0.0495 in experiment [6]. Further, the Bliss excess in [7] was -0.106; in experiment [8], -0.0412; in [9] it was -0.0795; in experiment [10], -0.01; in experiment [11], -0.075; in [12], -0.0581. The Bliss excess was -0.0832 in experiment [13]; -0.0484 in [14]; -0.0417 in experiment [15]; -0.0386 in [16]; -0.0642 in experiment [17]; -0.059 in [18]. Further, the Bliss excess is -0.0388 in experiment [19] and -0.0864 in experiment [20].

For `COc1nnc2ccc(N3CCC(c4ccc(OCCN5CCN(C)C(=O)[C@H]5C)cc4)CC3)nn12` [AZD5153] + CN(CC[C@H](CSC1=CC=CC=C1)NC2=C(C=C(C=C2)S(=O)(=O)NC(=O)C3=CC=C(C=C3)N4CCC(CC4)[C@H](C5=CC=CC=C5C6=CC=C(C=C6)Cl)O)S(=O)(=O)C(F)(F)F)CCO [AZD4320] (first compound max 1 µM, 7x7, partner max 1 µM), the Bliss excess in experiment [2] is 0.057; in experiment [3], 0.0659; in experiment [4], -0.0124; in [6], -0.0243; in [7], -0.0236; in [10] it was 0.085. Also, the Bliss excess in experiment [13] is 0.0103; in experiment [14], 0.0704; in experiment [15], -0.0232; in experiment [16], 0.0448; in experiment [17], 0.0506.

Turning to `Cc1c2c(nn1C)CSCc1cc(n(C)n1)CSc1cc(c3ccccc3c1)OCCCc1c(C(=O)O)n(C)c3c-2c(Cl)ccc13` [AZD5991] + CCN(CCO)CCCOc1ccc2c(Nc3cc(CC(=O)Nc4cccc(F)c4)[nH]n3)ncnc2c1 [AZD2811] (first compound max 1 µM, 7x7, partner max 1 µM), the Bliss excess in experiment [1] was 0.0058; in [2] it was -0.0156; in experiment [3], 0.0489; in experiment [4], 0.0357; in experiment [5] it was -0.0133; in experiment [6] it was 0.123. Besides, the Bliss excess in [7] was -0.0592; in experiment [8], -0.0133; in [10], 0.0869; in experiment [11], 0.144; in [12], 0.0918; in experiment [13] it was 0.0054. Besides, the Bliss excess in experiment [14] is 0.0098; in [15] it was 0.0434; in experiment [16] it was 0.0122; in experiment [17], -0.0057; in [18], 0.0418; in [19] it was 0.0227. In experiment [20], the Bliss excess came to 0.0619.

Consider `CC(=O)c1c(C)c2cnc(Nc3ccc(N4CCNCC4)cn3)nc2n(C2CCCC2)c1=O` [Palbociclib] + CN(CC[C@H](CSC1=CC=CC=C1)NC2=C(C=C(C=C2)S(=O)(=O)NC(=O)C3=CC=C(C=C3)N4CCC(CC4)[C@H](C5=CC=CC=C5C6=CC=C(C=C6)Cl)O)S(=O)(=O)C(F)(F)F)CCO [AZD4320] (first compound max 10 µM, 7x7, partner max 1 µM), for which the Bliss excess was 0.0326 in experiment [2]; -0.0315 in [3]; -0.0805 in [4]; -0.0418 in experiment [6]; -0.0929 in experiment [7]; 0.0465 in experiment [10]. The Bliss excess in experiment [13] was -0.134; in experiment [14], -0.0549; in experiment [15], 0.0082; in [16], -0.0276; in [17], 0.0047.

For the compound `CCc1c2c(nc3ccc(O)cc13)-c1cc3c(c(=O)n1C2)COC(=O)[C@]3(O)CC` [SN-38] + O=C(c1cc(Cc2n[nH]c(=O)c3ccccc23)ccc1F)N1CCN(C(=O)C2CC2)CC1 [Olaparib] (first compound max 0.3 µM, 7x7, partner max 10 µM), the Bliss excess is 0.119 in experiment [1]; 0.0044 in experiment [3]; 0.0138 in experiment [4]; 0.0889 in experiment [5]; -0.0044 in experiment [6]; 0.0064 in [7]. For the same compound, the Bliss excess in experiment [8] was -0.0382; in experiment [9] it was -0.0043; in [10] it was 0.0811; in [11], 0.101; in [12] it was 0.0276; in experiment [13], 0.036. In addition, the Bliss excess is -0.0524 in experiment [16], 0.0626 in [18], 0.0414 in [19] and 0.05 in [20].

As to `C[C@@H](c1ccc2nccn2c1)n1nnc2ncc(-c3cnn(C)c3)nc21` [Savolitinib] + CN(CC[C@H](CSC1=CC=CC=C1)NC2=C(C=C(C=C2)S(=O)(=O)NC(=O)C3=CC=C(C=C3)N4CCC(CC4)[C@H](C5=CC=CC=C5C6=CC=C(C=C6)Cl)O)S(=O)(=O)C(F)(F)F)CCO [AZD4320] (first compound max 1 µM, 7x7, partner max 1 µM), the Bliss excess in experiment [2] was -0.0101; in [3], -0.0096; in experiment [4], -0.0646; in experiment [6] it was -0.0221; in experiment [7] it was -0.0576; in [10], -0.0452. Also, the Bliss excess in [13] was -0.0589; in experiment [14] it was -0.0188; in experiment [15] it was -0.0158; in experiment [16], -0.0518; in experiment [17], 0.0158.

In the case of `CC(=O)Nc1cccc(-n2c(=O)n(C3CC3)c(=O)c3c(Nc4ccc(I)cc4F)n(C)c(=O)c(C)c32)c1` [Trametinib] + Cc1nc(-c2cn3c(n2)-c2ccc(-c4cnn(C(C)(C)C(N)=O)c4)cc2OCC3)n(C(C)C)n1 [Taselisib] (first compound max 1 µM, 7x7, partner max 10 µM), the Bliss excess amounted to 0.24 in experiment [1]; 0.21 in [2]; 0.05 in experiment [3]; 0.0443 in experiment [4]; 0.0857 in experiment [5]; 0.218 in [6]. Also, the Bliss excess is 0.0568 in experiment [7]; 0.117 in experiment [8]; 0.119 in [10]; 0.0284 in [11]; 0.0204 in experiment [12]; 0.0344 in [13]. For the same compound, the Bliss excess in experiment [14] amounted to 0.198; in experiment [15], 0.173; in experiment [16], 0.0342; in experiment [17], 0.0018; in experiment [18] it was 0.16; in [19] it was 0.209. Moreover, the Bliss excess in [20] was 0.0124.
